Entries after “also recorded” stand apart in the source; their conditions may differ.

What all share (assay type): cell-based
Assay [1] relates to NIH3T3 cells. Nature of the assay: Immunostaining of ceramide. The procedure: (§1) As for light microscopic observation, cells were plated on a 35-mm glass-bottomed dish (Matsunami, Japan, #D11130H) that had been pre-coated with poly-L-lysine (1:1,000, Sigma, #P4707) for 1 hour. Immunofluorescence labelling was performed using the antibodies described above. Briefly, cells were incubated with the primary antibody overnight at 4° C., and with the secondary antibody for 1 hour, followed by washing with PBS three times for 5 minutes for each washing. Thereafter, as mentioned above, using a spinning disc confocal microscope (Yokogawa/ZEISS) or an LSM780 confocal microscope equipped with Airyscan, the cells were observed. Three dimensional reconstruction of the cells was performed using Imaris 8 software (Bitplane).
In order to investigate whether nSMase2 activity is influenced by the CID1067700 treatment, NIH3T3 cells were treated with CID1067700 and/or GW4869, and immunostaining of ceramide was then performed (FIG. 6).

In assay [2] the test system is NIH3T3 cells. The assay can be described thus: Fluorescence microscopy of extracellular structures containing Shh and Hsp90. To be noted: 40 μM, 24 hours, vs DMSO. The procedure: as §1
The morphological characteristics of Shh-EVs mediated by Hsp90 secreted from CID1067700-treated cells were observed. Both Shh-tagRFP and Hsp90-EGFP were transduced into NIH3T3 cells, and the effects obtained by treating the cells with CID1067700 for 24 hours were compared. The cells were fixed the cells and were then photographed by z-stacks, and a three-dimensional model was then constructed. […] Since these structures were observed after the medium was removed and the cells were fixed, they are thought to interact with the cells as intermediate structures in the process of extracellular vesicle release. […]

Assay [3] deals with human mesenchymal stem cells. The assay can be described thus: Transmission electron microscopy of hMSC-EV pellets. The following applies: TEM histogram of particle sizes larger than 100 nm, vs DMSO. The method, then:
Observation by transmission electron microscopy (TEM) was performed according to previously reported standard methods (Nonaka et al., Cell 95, 829-837, 1998; Takei et al., The Journal of cell biology 131, 1789-1800, 1995). A precipitate of extracellular vesicles was fixed in Half Kalnovsky fixative at 37° C. for 10 min and then at 4° C. overnight, followed by post-fixation with 1% OsO4 (in 0.1 M cacodylate buffer (pH 7.4)) on ice for 1.5 hours. Thereafter, the sample was subjected to electron staining with 1% uranyl acetate for 1 hour, and was then dehydrated using a graded ethanol series. Finally, the dehydrated extracellular vesicle sample was embedded in Quetol-812 (Nisshin EM), was then cut into ultrathin sections, was then electron-stained with uranyl acetate and lead citrate, and was then observed using a JEM2000 microscope at 100 keV, or using a JEM-1400Flash microscope at 80 keV. Next, the extracellular vesicle pellets were observed using TEM (FIG. 4). In addition to conventionally known small (approximately 100 nm in diameter) exosome-like particles, particles with a low electron density (bright) and a diameter of larger than 800 nm were contained in the extracellular vesicle fraction derived from human mesenchymal stem cells treated with CID1067700, and the particles tended to be surrounded with a lipid double layer (FIGS. 4A and 4B).

Assay [4] relates to human mesenchymal stem cells. The assay can be described thus: Immunoblotting of extracellular vesicle fraction from culture supernatant of treated human mesenchymal stem cells. The following applies: 40 μM, 24 hours, compared to DMSO. The procedure:
(§2) CID1067700 (#SML0545-5MG) was purchased from Sigma-Aldrich, was solubilized at 40 mM in DMSO, and was added to cells to a final concentration of 40 μM, followed by performing culture for 24 hours. GW4869 (#13127) was purchased from Cayman Chemical, was solubilized at 5 mM in DMSO, and was added to cells to a final concentration of 1.25 μM, followed by performing culture for 24 hours. TAS116 (#HY-15785) was purchased from MedChemExpress, was solubilized at 1 mM in DMSO and was added to cells to a final concentration of 0.5 μM, followed by performing culture for 48 hours.
(§3) Human mesenchymal stem cells were plated on three 10-cm cell culture dishes at a density of 5,000 to 6,000 cells/cm^2. Six days after initiation of the culture, per dish, the medium was replaced with the EV Production Basal Medium (FUJIFILM-Wako, #053-09451 and #298-84001), to which 10 mL of supplements had been added (wherein a new medium to be replaced comprised an additive compound, as appropriate). After 24 hours of culture under conditions of 5% CO2 and 37° C., the medium was recovered, and was then centrifuged at 2,000×g for 30 minutes at 4° C. to remove the cell debris. Using a Millipore Amicon Ultra 30,000 MWCO filter (Pall, #MAP030C37), the resultant was centrifuged at 4,000×g for 60 minutes at 4° C., so that it was condensed to 1 ml. To the condensed culture supernatant, 500 μL of Total Exosome Isolation Reagent (Invitrogen, #4478359) was added, and the obtained mixture was then incubated overnight, while mixing it by inverting. The solution that had been mixed overnight was centrifuged at 10,000×g for at least 1 hour, and the extracellular vesicles were harvested as a precipitate, which was then resuspended in 30 μL of PBS. The obtained extracellular vesicles were preserved at 4° C. and were then used in experiments within 1 week.
Immunoblotting was performed according to the previous report (Yin et al., Neuron 70, 310-325, 2011). […] The bands were detected using an ImageQuant LAS 4000 mini system (GE Healthcare Life Sciences, USA) and were then quantified using ImageJ software. […]

Assay [5] deals with ShhN-EGFP transduced NIH3T3 fibroblasts. The assay can be described thus: In vitro extracellular vesicle release imaging (Shh-EV tracking). The procedure:
as §2
In order to monitor the Brownian motion of Shh extracellular particles, NIH3T3 cells were plated at 1×10^4 cells/well onto an 8-well LabTek II Chamber #1.5 German Coverglass System pre-coated with poly-L-lysine. On the 3rd day of the culture, an adenoviral Shh-N-EGFP expression vector was introduced into the NIH3T3 cells. […] Twenty-four hours after the medium replacement, time-lapse imaging was performed using a spinning disc microscope (Yokogawa/ZEISS) according to the previous report (Tanaka et al., Neuron 90, 1215-1229, 2016) under conditions of 5% CO2 and 37° C. at intervals of 5 seconds. Shh extracellular vesicles with Brownian motion were identified using Imaris 8 software (Bitplane) and were then quantified.
Extracellular vesicles with a large particle diameter, which contain Shh, were visualized by live cell imaging in ShhN-EGFP transduced NIH3T3 fibroblasts treated with CID1067700 (FIG. 5).
These particles were automatically tracked and were identified as extracellular vesicles released from cells under drug (CID1067700, GW4869, or TSA116) addition conditions (FIGS. 5B to 5I). […] However, this increase in the released amount of Shh-EVs due to the CID1067700 treatment disappeared, when the cells were treated with […] TSA116 (Hsp90 inhibitor) for 48 hours or with 1.25 μM GW4869 (nSMase2 inhibitor) for 24 hours (FIG. 5J).

The subject of assay [6] is human mesenchymal stem cells. The assay can be described thus: Nanoparticle tracking analysis (NTA) of culture supernatant of human mesenchymal stem cells. The procedure: as §3
The above-described culture supernatant was diluted with PBS, and was then analyzed using Zetaview Nanoparticle Tracking Analysis Instrument (Particle Metrix, Germany). The collected data were analyzed and diagrammatized using Prism software (Graphpad, ver. 7 and 9.3.1).
First, human mesenchymal stem cells were cultured for 24 hours in a basic medium for EV production (FUJIFILM-Wako) supplemented with supplements in the presence or absence of CID1067700, and NTA was performed using the culture supernatant after removing impurities by centrifugation (FIG. 3). Using ZetaView system capable of counting extracellular vesicles with a large particle diameter such as approximately 1 μm, the measurement was performed at the “highest” mode. […]

Setting [7] is: culture supernatant, 24 hours treatment, n=4.

Take `CC1(C)Cc2c(sc(NC(=S)NC(=O)c3ccccc3)c2C(=O)O)CO1` [CID1067700, 2-(benzoylcarbamothioylamino)-5,5-dimethyl-4,7-dihydrothieno[2,3-c]pyran-3-carboxylic acid]: the “expression level of ceramide in the cytoplasm” value in assay [1] (24 hours of treatment (40 μM), compared to DMSO alone) was “significantly increased”. Besides, the “cells with extracellular structures containing Hsp90 and Shh” value in assay [2] is “significantly increased”. In assay [3], the “number of large-size extracellular vesicles” value is listed as “significantly increased”. In assay [4], the “amount of Shh in the extracellular vesicles released from the cells” value is recorded as “significantly elevated”, the “amount of the general exosome marker Hsp90 in extracellular vesicles” value is “largely unaltered” and the “amount of the general exosome marker TSG101 in extracellular vesicles” value is “largely unaltered”. In addition, the “number of Shh-EVs” value in assay [5] (24 hours of treatment, compared to control (DMSO treatment)) is “significantly increased”. In addition, in assay [6] (setting [7]), the “extracellular vesicles with a diameter of 100 to 800 nm per ml” value is given as 3.2±1.9×10^8 particles/ml and the “extracellular vesicles with a diameter of larger than 800 nm” value is on record as 6.6±2.2×10^7 particles/ml. The “number of extracellular vesicles with a particle diameter of greater than 800 nm” value in assay [6] (result in words, vs DMSO alone) is “significantly increased”.
On to `O=C(/C=C/c1ccc(/C=C/C(=O)Nc2ccc(C3=NCCN3)cc2)cc1)Nc1ccc(C2=NCCN2)cc1` [GW4869], for which, in assay [1] (simultaneous treatment with GW4869 (2.5 μM), 24 hours), the “increase in the expression level of ceramide caused by CID1067700” value is “significantly suppressed; also recorded: offset”. Moreover, the “increase in the released amount of Shh-EVs due to the CID1067700 treatment” value in assay [5] (co-treatment with 1.25 μM GW4869 for 24 hours) was “disappeared”.
In the case of `CCc1cc(C(N)=O)ccc1-n1nc(C(C)C)c2c(-n3cnc(-c4cnn(C)c4)c3)ccnc21` [TSA116], the “increase in the released amount of Shh-EVs due to the CID1067700 treatment” value in assay [5] (co-treatment with 5 μM TSA116 for 48 hours) is “disappeared”.

For the origin of these results see patent US20260007609A1, “METHOD FOR PRODUCING EXTRACELLULAR VESICLES CONTAINING BIOACTIVE SUBSTANCE” (The University of Tokyo, priority 2022, published 2026).
